Assay results taken from ChEMBL document CHEMBL1124142, “N6-[2-(3,5-dimethoxyphenyl)-2-(2-methylphenyl)ethyl]adenosine and its uronamide derivatives. Novel adenosine agonists with both high affinity and high selectivity for the adenosine A2 receptor” (J Med Chem, 1988).

Experiments:
Adenosine A2 receptor [1] = biological target: T1, Adenosine A2 receptor (Rattus norvegicus, UniProt P29276+P30543)
Adenosine receptor A1 = biological target: T2, Adenosine receptor A1 (Rattus norvegicus, UniProt P25099); test: biochemical
T2 sequence (P25099 whole entry): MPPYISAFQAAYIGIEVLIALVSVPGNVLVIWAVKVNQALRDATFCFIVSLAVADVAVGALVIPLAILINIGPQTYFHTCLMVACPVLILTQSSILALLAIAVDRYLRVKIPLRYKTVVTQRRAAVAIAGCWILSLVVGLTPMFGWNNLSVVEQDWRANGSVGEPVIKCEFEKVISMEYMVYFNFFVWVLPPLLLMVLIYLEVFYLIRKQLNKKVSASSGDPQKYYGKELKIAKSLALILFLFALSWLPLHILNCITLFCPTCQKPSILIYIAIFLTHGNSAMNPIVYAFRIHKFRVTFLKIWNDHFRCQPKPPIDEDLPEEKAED
Description: Binding affinity at adenosine A1 receptor from rat brain membranes by [3H]N6-cyclohexyladenosine displacement.

Adenosine A2 receptor [2] = biological target: T1, Adenosine A2 receptor; test: Binding affinity at adenosine A2 receptor from rat striatal membranes by [3H]NECA displacement.

Structure (SMILES) | Ki (Adenosine A2 receptor [1]) [nM] | Ki (Adenosine receptor A1) [nM] | Ki (Adenosine A2 receptor [2]) [nM]
OC[C@H]1O[C@@H](n2cnc3c(NCc4cccc5ccccc45)ncnc32)[C@H](O)[C@@H]1O | 9.4 | – | –
COc1cc(OC)cc(C(CNc2ncnc3c2ncn3C2O[C@H](CO)[C@@H](O)[C@H]2O)c2ccccc2)c1 (some centres not stated) | 6.1 | 30.2 | –
OC[C@H]1OC(n2cnc3c(NCC(c4ccccc4)c4cc(Cl)cc(Cl)c4)ncnc32)[C@H](O)[C@@H]1O (some centres not stated) | – | 18.4 | –
Cc1cccc(C)c1C(CNc1ncnc2c1ncn2C1O[C@H](CO)[C@@H](O)[C@H]1O)c1ccccc1 (some centres not stated) | 62 | 229 | –
CCNC(=O)[C@H]1OC(n2cnc3c(NCC(c4cc(OC)cc(OC)c4)c4ccccc4C)ncnc32)[C@H](O)[C@@H]1O (some centres not stated) | – | 207 | 5.6
Nc1nc(Nc2ccccc2)nc2c1ncn2[C@@H]1O[C@H](CO)[C@@H](O)[C@H]1O | 116 | – | –
CNC(=O)[C@H]1OC(n2cnc3c(NCC(c4cc(OC)cc(OC)c4)c4ccccc4C)ncnc32)[C@H](O)[C@@H]1O (some centres not stated) | – | 1010 | 43
COc1cc(OC)cc(C(CNc2ncnc3c2ncn3C2O[C@H](C(=O)NC3CC3)[C@@H](O)[C@H]2O)c2ccccc2C)c1 (some centres not stated) | – | 232 | 8.7
OC[C@H]1OC(n2cnc3c(NCC(c4cccc(Cl)c4)c4cccc(Cl)c4)ncnc32)[C@H](O)[C@@H]1O (some centres not stated) | 6 | 2.6 | –
COc1cc(OC)cc(C(CNc2ncnc3c2ncn3C2O[C@H](CO)[C@@H](O)[C@H]2O)c2c(C)cccc2C)c1 (some centres not stated) | 19.5 | 140 | –
COc1cc(OC)cc(C(CNc2ncnc3c2ncn3[C@@H]2O[C@H](CO)[C@@H](O)[C@H]2O)c2ccccc2C)c1 (stereo in doubt; 16) | 4.4 | 142 | –
Cc1cccc(C(CNc2ncnc3c2ncn3C2O[C@H](CO)[C@@H](O)[C@H]2O)c2cccc(C)c2)c1 (some centres not stated) | 18.8 | 9.3 | –
OC[C@H]1OC(n2cnc3c(NCC(c4ccccc4)c4c(Cl)cccc4Cl)ncnc32)[C@H](O)[C@@H]1O (some centres not stated) | 19 | 61 | –
COc1cc(OC)cc(C(CNc2ncnc3c2ncn3[C@@H]2O[C@H](CO)[C@@H](O)[C@H]2O)c2ccccc2C)c1 (single isomer, unassigned; (+)) | 6.2 | 188 | –
COc1cc(OC)cc(C(CNc2ncnc3c2ncn3[C@@H]2O[C@H](CO)[C@@H](O)[C@H]2O)c2ccccc2C)c1 (single isomer, unassigned) | 3.1 | 118 | –
